Laboratory results reported in the supplement of paper PMC10307832.

What was measured:
Test in all cases: relative viability (nuclei count vs DMSO), 5 days (fraction); higher = more cells survive
GW-2580 + Foretinib = compound: COC1=CC=C(C=C1)COC2=C(C=C(C=C2)CC3=CN=C(N=C3N)N)OC [GW-2580] + COc1cc2c(Oc3ccc(NC(=O)C4(C(=O)Nc5ccc(F)cc5)CC4)cc3F)ccnc2cc1OCCCN1CCOCC1 [Foretinib] (partner 0.25 µM)
In short: (§1)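 Each reported value is a median over duplicate plates. It expresses relative viability: treated-well nuclei count divided by vehicle-well nuclei count. Lung cancer cell lines in 1536-well plates were dosed by pin tool a day after seeding, alone with one drug or with a fixed anchor-drug dose plus five library-drug doses (not always all listed) in √10 steps, and nuclei were counted after 5 days.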

GW-2580 + Pictilisib = compound: COC1=CC=C(C=C1)COC2=C(C=C(C=C2)CC3=CN=C(N=C3N)N)OC [GW-2580] + CS(=O)(=O)N1CCN(Cc2cc3nc(-c4cccc5[nH]ncc45)nc(N4CCOCC4)c3s2)CC1 [Pictilisib] (partner 1 µM)
In short: as §1

GW-2580 + Vorinostat = compound: COC1=CC=C(C=C1)COC2=C(C=C(C=C2)CC3=CN=C(N=C3N)N)OC [GW-2580] + O=C(CCCCCCC(=O)Nc1ccccc1)NO [Vorinostat] (partner 1 µM)
In short: as §1

Fedratinib + Trametinib = compound: Cc1cnc(Nc2ccc(OCCN3CCCC3)cc2)nc1Nc1cccc(S(=O)(=O)NC(C)(C)C)c1 [Fedratinib] + CC(=O)Nc1cccc(-n2c(=O)n(C3CC3)c(=O)c3c(Nc4ccc(I)cc4F)n(C)c(=O)c(C)c32)c1 [Trametinib] (partner 0.02 µM)
In short: as §1

Fedratinib + AZD7762 = compound: Cc1cnc(Nc2ccc(OCCN3CCCC3)cc2)nc1Nc1cccc(S(=O)(=O)NC(C)(C)C)c1 [Fedratinib] + NC(=O)Nc1cc(-c2cccc(F)c2)sc1C(=O)N[C@H]1CCCNC1 [AZD7762] (partner 0.2 µM)
In short: as §1

Cell Line | relative viability (GW-2580 + Foretinib; first compound 0.08 µM) | relative viability (GW-2580 + Foretinib; first compound 0.8 µM) | relative viability (GW-2580 + Foretinib; first compound 2.53 µM) | relative viability (GW-2580 + Foretinib; first compound 8 µM) | relative viability (GW-2580 + Pictilisib; first compound 0.08 µM) | relative viability (GW-2580 + Pictilisib; first compound 0.8 µM) | relative viability (GW-2580 + Pictilisib; first compound 2.53 µM) | relative viability (GW-2580 + Pictilisib; first compound 8 µM) | relative viability (GW-2580 + Vorinostat; first compound 0.08 µM) | relative viability (GW-2580 + Vorinostat; first compound 0.8 µM) | relative viability (GW-2580 + Vorinostat; first compound 2.53 µM) | relative viability (GW-2580 + Vorinostat; first compound 8 µM) | relative viability (Fedratinib + Trametinib; first compound 0.1 µM) | relative viability (Fedratinib + Trametinib; first compound 0.3162 µM) | relative viability (Fedratinib + Trametinib; first compound 1 µM) | relative viability (Fedratinib + AZD7762; first compound 0.1 µM) | relative viability (Fedratinib + AZD7762; first compound 0.3162 µM) | relative viability (Fedratinib + AZD7762; first compound 1 µM)
LCLC-103H | 0.979 | 0.865 | 0.83 | 0.676 | 0.648 | 0.638 | 0.649 | 0.599 | 0.753 | 0.851 | 0.791 | 0.671 | 0.699 | 0.683 | 0.659 | 0.857 | 0.72 | 0.647
LK-2 | 1.62 | 1.45 | 1.05 | 1.2 | 0.476 | 0.569 | 0.428 | 0.552 | 0.242 | 0.28 | 0.205 | 0.311 | 0.799 | 0.8 | 0.605 | 0.286 | 0.393 | 0.293
LOU-NH91 | 0.957 | 0.969 | 0.94 | 1.02 | 0.527 | 0.549 | 0.502 | 0.535 | 0.925 | 1.03 | 0.801 | 0.943 | 0.753 | 0.781 | 0.752 | 0.594 | 0.857 | 0.658
LU99A | 0.834 | 0.944 | 0.724 | 0.881 | 0.274 | 0.322 | 0.251 | 0.294 | 0.646 | 0.522 | 0.435 | 0.528 | 0.577 | 0.593 | 0.477 | 0.322 | 0.325 | 0.272
LXF-289 | 1.06 | 0.99 | 0.957 | 0.891 | 0.82 | 0.849 | 0.653 | 0.672 | 0.843 | 0.806 | 0.776 | 0.72 | 0.676 | 0.61 | 0.621 | 1.08 | 1.07 | 0.966
NCI-H23 | 1.23 | 1.18 | 0.887 | 0.907 | 0.632 | 0.46 | 0.367 | 0.502 | 0.53 | 0.782 | 0.462 | 0.546 | 0.373 | 0.395 | 0.306 | 0.356 | 0.27 | 0.183
NCI-H322M | 1.02 | 1.06 | 0.924 | 0.979 | 0.493 | 0.534 | 0.501 | 0.531 | 0.843 | 0.996 | 0.893 | 0.903 | 0.439 | 0.481 | 0.508 | 0.596 | 0.591 | 0.414
NCI-H358 | 0.761 | 0.79 | 0.679 | 0.557 | 0.356 | 0.32 | 0.28 | 0.308 | 0.754 | 0.816 | 0.631 | 0.984 | 0.126 | 0.125 | 0.111 | 0.502 | 0.49 | 0.438
NCI-H441 | 1.03 | 1.16 | 1.06 | 1.1 | 0.505 | 0.587 | 0.379 | 0.436 | 0.913 | 0.951 | 0.68 | 0.783 | 0.348 | 0.345 | 0.301 | 1.34 | 1.09 | 1.05
NCI-H460 | 1.02 | 1.09 | 0.987 | 0.924 | 0.369 | 0.452 | 0.248 | 0.4 | 0.85 | 1.11 | 0.721 | 0.631 | 0.163 | 0.156 | 0.061 | 0.738 | 0.563 | 0.544
NCI-H596 | 0.795 | 0.88 | 0.957 | 0.823 | 0.4 | 0.407 | 0.343 | 0.392 | 0.591 | 0.595 | 0.495 | 0.564 | 0.739 | 0.804 | 0.755 | 0.965 | 1.04 | 1.13
NCI-H647 | 1.25 | 1.16 | 1.13 | 1.37 | 0.37 | 0.515 | – | 0.48 | 0.726 | 0.511 | 0.59 | 0.447 | 0.521 | 0.493 | 0.366 | 0.424 | 0.444 | 0.249
NCI-H650 | 1.06 | 1.05 | 0.932 | 0.94 | 0.786 | 0.979 | 0.71 | 0.78 | 0.512 | 0.502 | 0.349 | 0.416 | 1.04 | 1.04 | 0.869 | 1.17 | 0.933 | 0.755
NCI-H727 | 0.694 | 1.05 | 0.834 | 0.777 | 0.355 | 0.622 | 0.349 | 0.372 | 1.09 | 1.26 | 1.25 | 1.26 | 0.38 | 0.426 | 0.392 | 0.639 | 0.465 | 0.576
NCI-H838 | 1.15 | 1.14 | 0.997 | 1.03 | 0.569 | 0.462 | 0.326 | 0.614 | 0.789 | 0.782 | 0.691 | 0.771 | 0.475 | 0.525 | 0.542 | 0.961 | 0.913 | 0.906
NCI-H1355 | 1.04 | 1.06 | 0.841 | 0.923 | 0.476 | 0.43 | 0.274 | 0.421 | 0.701 | 0.656 | 0.529 | 0.697 | 0.442 | 0.387 | 0.412 | 0.646 | 0.707 | 0.612
NCI-H1395 | 1.08 | 0.934 | 1 | 0.923 | 0.626 | 0.584 | 0.561 | 0.632 | 0.669 | 0.662 | 0.623 | 0.742 | 0.979 | 0.962 | 0.814 | 0.385 | 0.402 | 0.377
